Test results reported in patent US20060194815A1, “Methods and compositions for modulating serum cortisol levels” (priority 2003, published 2006).

How the values were obtained:
[1] = target: T1, HMG-CoA reductase (Mus musculus, UniProt Q01237); assay: Direct effect on HMG-CoA reductase activity in sonicated Y1 cell homogenates; assay type: biochemical; conditions: control 10.1±0.9
T1 construct: endogenous in cells; host or cells: Y1 mouse adrenal tumor cells (Brij 96 extract; sonicated homogenate for the direct test)
T1 sequence (Q01237 1-887): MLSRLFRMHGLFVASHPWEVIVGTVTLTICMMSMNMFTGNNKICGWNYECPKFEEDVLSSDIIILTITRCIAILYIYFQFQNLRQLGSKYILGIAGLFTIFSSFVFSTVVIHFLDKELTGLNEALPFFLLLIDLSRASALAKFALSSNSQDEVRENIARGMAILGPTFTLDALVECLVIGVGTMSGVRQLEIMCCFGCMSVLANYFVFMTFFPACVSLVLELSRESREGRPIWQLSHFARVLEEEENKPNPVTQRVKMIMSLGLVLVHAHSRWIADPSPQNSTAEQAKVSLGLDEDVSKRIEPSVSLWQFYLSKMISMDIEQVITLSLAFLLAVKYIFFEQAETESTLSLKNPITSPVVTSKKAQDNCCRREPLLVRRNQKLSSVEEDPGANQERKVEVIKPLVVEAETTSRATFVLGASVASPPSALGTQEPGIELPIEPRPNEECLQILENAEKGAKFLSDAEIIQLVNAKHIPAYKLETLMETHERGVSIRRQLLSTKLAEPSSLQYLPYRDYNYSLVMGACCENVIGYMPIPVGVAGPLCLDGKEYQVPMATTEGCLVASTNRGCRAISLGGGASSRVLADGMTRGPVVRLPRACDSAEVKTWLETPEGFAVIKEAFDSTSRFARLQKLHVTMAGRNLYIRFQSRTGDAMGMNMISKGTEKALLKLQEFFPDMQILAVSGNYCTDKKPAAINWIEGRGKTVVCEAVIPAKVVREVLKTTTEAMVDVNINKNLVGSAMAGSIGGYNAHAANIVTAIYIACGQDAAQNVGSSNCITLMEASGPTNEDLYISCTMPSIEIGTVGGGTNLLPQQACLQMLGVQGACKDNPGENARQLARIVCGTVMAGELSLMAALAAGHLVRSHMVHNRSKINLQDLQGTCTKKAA
Procedure: Cells were washed twice with ice-cold PBS and incubated with ice-cold assay buffer (0.1M sucrose, 40 mM KH2PO4, 30 mM EDTA, 50 mM KCl, 5 mM DTT, 0.25% (v/v) of Brij 96, at pH 7.4) on ice for 20 minutes. After centrifugation for 3 minutes at 14000 g (4° C.) the supernatants were collected and used for HMG-CoA reductase activity assay. The total 150 l assay mixture contained 100-200 g protein and the NADPH-generating system (2.5 mM NADP, 20 mM glucose 6-phosphate and 20 U/ml glucose 6-phosphate dehydrogenase). The reaction was started by adding substrate (^14C-HMG-CoA, 0.1 Ci) and stopped after 45 minutes by adding 10-1 of HCl 6M. ^3H-mevalonolactone was also added to the samples as an extraction recovery marker. After an additional 30 minutes incubation time, to allow complete lactonization of the product, the mixture was centrifuged. The supernatant was applied to Bond-Elut NH2 column and eluted with 1 ml of toluene/acetone (3:1). The eluate was discarded and further 4 ml of toluene/acetone was applied to the column and collected in a scintillation vial for counting ^14C-mevalonate and 3H-mevalonolactone signals (Berkhout et al., 1990).
In separate experiments cells were disrupted by sonication and then treated with procaine. The direct effect of the treatment on HMG-CoA reductase activity in the homogenates was determined as described above.

[2] = system: H295R human adrenal tumor cells; assay: MTT cell viability / mitochondrial function, H295R cells; assay type: cell-based; conditions: H295R cells exposed to dbcAMP
Procedure: Cell viability at the end of the incubation protocol described above was assessed using the mitochondrial integrity 3-(4,5-dimethylthiazol-2-yl)-2,5-diphenyl tetrazolium bromide (MTT) assay (Trevigen, Gaithersburg, Md.). Briefly, 10 l of the MTT solution were added to the cells in 100 l medium. After an incubation period of 4 hours, 100 l of detergent were added and cells were incubated overnight at 37° C. Formazan blue formation was quantified at 600 nm and 690 nm using the Victor quantitative detection spectrophotometer (EGG-Wallac, Gaithersburg, Md.) and the results expressed as (OD600-OD690).

CCN(CC)CCOC(=O)c1ccc(N)cc1 [procaine]
HMG-CoA reductase activity in sonicated cells ([1]; 1 μM procaine): 9.9±0.01 pmol/min/mg protein | HMG-CoA reductase activity in sonicated cells ([1]; 10 μM procaine): 10.3±0.6 pmol/min/mg protein | HMG-CoA reductase activity in sonicated cells ([1]; 100 μM procaine): 10.1±0.1 pmol/min/mg protein | dbcAMP-induced change of mitochondrial function (MTT) [2]: reversed the effect of dbcAMP on mitochondrial function | dbcAMP-induced change of mitochondrial function (MTT) ([2]; listed as Procaine): protected against the dbc-AMP-induced change of mitochondrial function
